Experiments:
thrombus [1] = assay: In vivo MRI of a jugular vein thrombus in the guinea pig, extracellular vascular agent followed by targeted agent; parameters: species or system guinea pig (Hartley male); conditions: vascular MR image
Method: A 600 g guinea pig (Hartley male) was anaesthetized with a cocktail of Ketamine (50 mg/kg), Aceapromazine (2.5 mg/kg), and Rompon (5 mg/kg), and anesthesia maintained with sodium pentobarbital (approx.35 mg/kg as needed). An incision was made in the throat and one of the jugular veins was isolated. A 1 cm section of the jugular vein was isolated with vascular clamps. Freshly drawn blood from the animal (50 μL) was mixed with human thrombin (50 uL, 4 units) and injected into the clamped segment of the vein. Four minutes after injection, the clamps were removed and the thrombus was allowed to age for 30 minutes.
The animal was placed inside a General Electric Signa LxCVi 1.5 tesla scanner and imaged using a 3D RF spoiled gradient echo sequence (SPGR) with the following parameters TR=22 ms, TE=3.1 ms, flip angle=40 degree, field of view=8 cm, acquisition bandwith=31.25 kHz. After one scan, an extracellular vascular MRI contrast agent, GdDTPA (Magnevist®), 100 μmol/kg, was injected via a catheter in the carotid artery. The image sequence was repeated 5 times over the next 30 minutes to acquire the vascular MRI data set. […]

thrombus [2] = assay: In vivo protocol: vascular agent followed by targeted agent, guinea pig jugular vein thrombus; parameters: species or system guinea pig (Hartley male); conditions: Example 1, 100 μmol/kg
Method: One procedure for in vivo imaging of a stationary target within the vascular system (e.g., a thrombus) with a vascular agent (e.g., an extracellular contrast agent or a blood pool agent), and a targeted contrast agent is as follows: A 600 g guinea pig (Hartley male) is anaesthetized. An incision is made in the throat and one of the jugular veins is isolated. A 1 cm section of the jugular vein is isolated with vascular clamps. Freshly drawn blood from the animal (50 μL) is mixed with human thrombin (50 μL, 4 units) and injected into the clamped segment of the vein. Four minutes after injection, the clamps are removed and the thrombus is allowed to age for 30 minutes. GdDTPA (Magnevist®), 100 μmol/kg, an extracellular contrast agent, is injected and the throat area of the guinea pig is imaged using the following pulse sequence on a GE Medical Systems 1.5T MRI: Tl-weighted SPGR, TE=3.1, TR=22, flip angle=40°. […] After 30 minutes, GdDTPA has cleared from the blood and a stationary target (thrombus) targeted MRI agent is injected at a dose of 6 μmol/kg. […]

thrombus [3] = assay: In vivo MRI of thrombi in the rabbit carotid artery (crush injury) and jugular vein; parameters: species or system New Zealand White rabbit
Method: A 2.5 kg female New Zealand White rabbit was anesthetized with a cocktail of Ketamine (50 mg/kg), Aceapromazine (2.5 mg/kg), and Rompon (5 mg/kg), and anesthesia maintained with sodium pentobarbital (approx.35 mg/kg as needed). An i.v. catheter (24 g) was placed into the ear vein and the ear artery. The jugular vein and carotid artery were isolated. A stenosis was created in the carotid artery by placing an 18 g needle on top of the vessel and then suturing it into place with 3-0 suture. The needle was then removed. A 5 mm portion of the artery was then segmented off distally to the stenosis with microvascular clips. The artery was crushed twice along the 5 mm section. The proximal vascular clip was released to allow blood flow into the section for circa 3 sec. The clip was reapplied and the artery was crushed twice again along the 5 mm section. After 4 minutes, the clips were removed. A 5 mm segment of the jugular vein was isolated with microvascular clips. A thrombus was created by injecting 100 μL of a 3.7 units thrombin, 0.06 M CaCl2, rabbit whole blood mixture. After 4 minutes, the clips were removed.
The thrombi were allowed to age for 50 minutes. A 1.0 mL solution of a 5 mM targeted contrast agent (Structure III, 2 μmol/kg) was administered via the ear vein. […]

`O=C([O-])CN(CCN(CC(=O)[O-])CC(=O)O)CCN(CC(=O)[O-])CC(=O)O.[Gd+3]` [GdDTPA] was tested, and the “enhancement of the vascular system” value (thrombus [1]; Example 10, 100 μmol/kg via carotid artery catheter) was 4 fold, the “enhancement of the thrombus” value (thrombus [1]; Example 10, 100 μmol/kg) was “no observable enhancement” and the “enhancement of the thrombus” value (thrombus [2]) was “no enhancement”. The “enhancement of the vasculature” value (thrombus [2]; immediately after injection) was “some enhancement”.
Gd-DTPA-BSA was tested, and the “visibility of blood vessels (carotid arteries, jugular veins) in MIP” value (thrombus [3]; Example 6, 80 μmol Gd/kg, image acquired immediately after injection) was “readily visible” and the “signal intensity of both the blood and thrombus” value (thrombus [3]; Example 9, 80 μmol Gd/kg, injected 80 minutes after the targeted agent) was “increased dramatically”.

Source: patent US7412279B2, “Systems and methods for targeted magnetic resonance imaging of the vascular system” (Epix Pharmaceuticals, Inc., priority 2001, dated 2008)
